Results from patent US12116343B2, “Inhibitors of APOL1 and methods of using same” (Vertex Pharmaceuticals Incorporated, priority 2020, dated 2024).

Molecular target: T1, APOL1 G1 Protein (Homo sapiens, UniProt O14791, I384M/S342G)
T1 sequence (O14791 28-398 S342G/I384M): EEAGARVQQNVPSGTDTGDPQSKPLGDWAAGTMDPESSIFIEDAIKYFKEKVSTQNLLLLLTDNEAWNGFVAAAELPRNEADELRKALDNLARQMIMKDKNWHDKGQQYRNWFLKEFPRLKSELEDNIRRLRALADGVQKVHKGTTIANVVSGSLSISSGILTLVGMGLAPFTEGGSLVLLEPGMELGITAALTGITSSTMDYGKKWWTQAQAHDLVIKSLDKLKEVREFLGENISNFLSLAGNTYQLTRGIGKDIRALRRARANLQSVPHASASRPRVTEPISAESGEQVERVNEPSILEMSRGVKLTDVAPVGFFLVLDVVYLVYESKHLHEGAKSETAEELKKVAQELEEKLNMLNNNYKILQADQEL
Test: Trypanosoma brucei brucei lysis assay using APOL1 recombinant protein (AlamarBlue viability)
Assay type: cell-based
Conditions: Trypanosoma brucei brucei lysis, recombinant APOL1, AlamarBlue; read-out: Trypanosoma Assay (IC50)
Outline: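 Bloodstream-form T. b. brucei Lister 427 VSG 221, 120,000 parasites/well in phenol red-free, FBS-free medium, lysed by recombinant APOL1 G1 with compound (10-point dose response, 0.1% DMSO final). Viability read by AlamarBlue fluorescence against a parasite standard curve.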

SMILES: O=C(NC1(CCO)CC1)[C@H]1C[C@H](c2c(-c3ccc(F)cc3)[nH]c3c(F)cc(F)cc32)C1 [Compound 59]
- IC50: 250 to 1000 nM
